This passage reports Normal melting temperature results from the NIST ThermoML archive (doi:10.1016/j.jct.2015.03.022).

Each structure is given as a SMILES string. ± gives the expanded uncertainty stated by the source.

For the series the following is noted: Crystal; DTA.
As for `[Br-].[Li+]` [lithium bromide], the Normal melting temperature stood at 551 ± 0.6 °C.

As for `[F-].[Li+]` [lithium fluoride], the Normal melting temperature was determined as 844 ± 0.6 °C. On to `[Ag][I]` [silver iodide], for which the Normal melting temperature was 559 ± 0.6 °C.
